Converted amounts (≈) assume the structure as drawn. Read-outs that look alike come from different tables or passages of the source.
How the values were obtained:
[1] = test system: Streptococcus pneumoniae Park I; assay: microbe, parasite or virus in culture; assay type: cell-based
[2] = test system: Streptococcus pyogenes C203; assay: In vivo protection of mice experimentally infected with S. pyogenes C203; settings: Streptococcus pyogenes, mice, doses given 1 and 4 hours post-infection
Description: The C-20 modified derivatives of this invention have shown in vivo antimicrobial activity against experimentally-induced infections in laboratory animals. When two doses of test compound were administered to mice experimentally infected with S. pyogenes C203, the activity observed was measured as an ED50 value [effective dose in mg/kg to protect 50% of the test animals: see Warren Wick, et al., J. Bacteriol. 81, 233-235 (1961)].

[3] = test system: Staphylococcus aureus; assay: MIC, broth-dilution microtiter test, Staphylococcus aureus; assay type: cell-based; settings: broth-dilution microtiter, read-out: MIC
Description: (§1) The MIC's in Table X were obtained using conventional broth-dilution microtiter tests.

[4] = test system: Staphylococcus aureus S13E; assay: MIC, standard agar-dilution assay, Staphylococcus aureus S13E; assay type: cell-based; settings: Staphylococcus aureus, S13E
[5] = test system: Haemophilus influenzae R252; assay: MIC, standard agar-dilution assay, Haemophilus influenzae R252; assay type: cell-based
[6] = test system: Pasteurella multocida 60A; assay: MIC, broth-dilution microtiter test, Pasteurella multocida 60A; assay type: cell-based
Description: as §1

[7] = test system: Streptococcus pyogenes C203; assay: MIC, standard agar-dilution assay, Streptococcus pyogenes C203; assay type: cell-based; settings: Streptococcus pyogenes, C203
[8] = test system: Mycoplasma gallisepticum; assay: MIC, broth-dilution microtiter test, Mycoplasma gallisepticum; assay type: cell-based; settings: Mycoplasmoides gallisepticum; Mycoplasma gallisepticum; broth-dilution microtiter; read-out: MIC
Description: as §1

[9] = test system: Pasteurella multocida 17E; assay: MIC, broth-dilution microtiter test, Pasteurella multocida 17E; assay type: cell-based
Description: as §1

[10] = test system: Streptococcus bovis 80; assay: MIC, broth-dilution microtiter test, Streptococcus bovis 80; assay type: cell-based; settings: Streptococcus equinus
Description: as §1

[11] = test system: Staphylococcus epidermidis EPI2; assay: MIC, standard agar-dilution assay, Staphylococcus epidermidis EPI2; assay type: cell-based; settings: Staphylococcus epidermidis EPI2; agar dilution; read-out: MIC
[12] = test system: Pasteurella hemolytica 22C; assay: MIC, broth-dilution microtiter test, Pasteurella hemolytica 22C; assay type: cell-based; settings: Pasteurella hemolytica 22C; broth-dilution microtiter; read-out: MIC
Description: as §1

[13] = test system: Streptococcus Group 9960; assay: MIC, standard agar-dilution assay, Streptococcus Group 9960; assay type: cell-based; settings: GROUP9960
[14] = test system: Staphylococcus aureus V41; assay: MIC, standard agar-dilution assay, Staphylococcus aureus V41; assay type: cell-based; settings: Staphylococcus aureus, V41
[15] = test system: Mycoplasma hyorhinis; assay: MIC, broth-dilution microtiter test, Mycoplasma hyorhinis; assay type: cell-based
Description: as §1

[16] = test system: Staphylococcus epidermidis EPI1; assay: MIC, standard agar-dilution assay, Staphylococcus epidermidis EPI1; assay type: cell-based
[17] = test system: Staphylococcus aureus X400; assay: MIC, standard agar-dilution assay, Staphylococcus aureus X400; assay type: cell-based
[18] = test system: Streptococcus Group D X66; assay: MIC, standard agar-dilution assay, Streptococcus Group D X66; assay type: cell-based
[19] = test system: Mycoplasma hyopneumoniae; assay: MIC, broth-dilution microtiter test, Mycoplasma hyopneumoniae; assay type: cell-based; settings: Mesomycoplasma hyopneumoniae
Description: as §1

[20] = test system: Mycoplasma synoviae; assay: MIC, broth-dilution microtiter test, Mycoplasma synoviae; assay type: cell-based; settings: Mycoplasmopsis synoviae
Description: as §1

[21] = test system: Haemophilus influenzae Holt; assay: MIC, standard agar-dilution assay, Haemophilus influenzae Holt; assay type: cell-based
[22] = test system: Pasteurella multocida; assay: Oral (gavage) treatment of Pasteurella multocida-infected chicks; assay type: in vivo, one-day-old chicks
Description: Many of the C-20 modified derivatives of this invention have also shown in vivo antibacterial activity against infections induced by gram-negative bacteria. Tables XII and XIII summarize the results of tests in which illustrative compounds were evaluated against Pasteurella infection in one-day-old chicks. The compounds were administered parenterally or orally after challenge of the chicks with Pasteurella multocida (0.1 ml of a 10^-4 dilution of a twenty-hour tryptose broth culture of an avian P. multocida given subcutaneously). In these tests, unless indicated otherwise, all non-medicated infected chicks died within 24 hours of Pasteurella challenge. In the tests summarized in Table XII the compounds were administered by subcutaneous injection at a dosage of 30 mg/kg, 1 and 4 hours post-challenge of the chicks with P. multocida. In the test summarized in Table XIII the compounds were administered by gavage at 1 and 5 hours post-challenge of the chicks with P. multocida.

[23] = test system: Staphylococcus aureus X1.1; assay: MIC, standard agar-dilution assay, Staphylococcus aureus X1.1; assay type: cell-based; settings: Staphylococcus aureus, X1.1
[24] = C203, sc, subcutaneous, read-out: ED50, Subcutaneous
[25] = C203, oral, read-out: ED50, Oral
[26] = Pasteurella multocida 60A, avian isolate, broth-dilution microtiter, read-out: MIC
[27] = Streptococcus bovis 80, broth-dilution microtiter, read-out: MIC
[28] = Mycoplasma hyopneumoniae, broth-dilution microtiter, read-out: MIC
[29] = Streptococcus Group 9960, agar dilution, read-out: MIC
[30] = Staphylococcus epidermidis, EPI1

Row | Compound | MIC ([1]; Streptococcus pneumoniae) [mg/L] | ED50 [2, 24] [mg/kg] | ED50 [2, 25] [mg/kg] | MIC [3] [mg/L] | MIC [4] [mg/L] | MIC [6, 26] [mg/L] | MIC [7] [mg/L] | MIC [8] [mg/L] | MIC [10, 27] [mg/L] | MIC [11] [mg/L] | MIC [12] [mg/L] | MIC [14] [mg/L] | MIC ([15]; Mycoplasma) [mg/L] | MIC [18] [mg/L] | MIC [19, 28] [mg/L] | MIC [20] [mg/L] | Number of Deaths/Number tested ([22]; 0.5 g/gal equivalent) | Number of Deaths/Number tested ([22]; 1.0 g/gal equivalent) | MIC [23] [mg/L] | MIC ([9]; Pasteurella multocida, 17E) [mg/L] | other results
1 | CCC1OC(=O)CC(O)C(C)C(OC2OC(C)C(O)C(N(C)C)C2O)C(CCF)CC(C)C(=O)C=CC(C)=CC1COC1OC(C)C(O)C(OC)C1OC (centres unmarked) [Compound 22, 20-DH-DO-20-Fluorodesmycosin] | 2 (≈ 2.58 µM) | 5 | 11 | 3.12 (≈ 4.02 µM) | 0.25 (≈ 0.322 µM) | 25 (≈ 32.2 µM) | 0.25 (≈ 0.322 µM) | 12.5 (≈ 16.1 µM) | 1.56 (≈ 2.01 µM) | 0.12 (≈ 0.155 µM) | > 50 | 0.25 (≈ 0.322 µM) | 50 (≈ 64.4 µM) | 8 (≈ 10.3 µM) | > 25 | 50 (≈ 64.4 µM) | 6/10 | 0/10 | 0.25 (≈ 0.322 µM) |  | MIC ([5]; Haemophilus influenzae R252, ampicillin-resistant strain, read-out: MIC): 16 mg/L (≈ 20.6 µM); MIC ([9]; Pasteurella multocida 17E, bovine isolate, broth-dilution microtiter, read-out: MIC): 25 mg/L (≈ 32.2 µM); MIC [13]: 8 mg/L (≈ 10.3 µM); MIC ([16]; Staphylococcus epidermidis EPI1, agar dilution, read-out: MIC): 0.12 mg/L (≈ 0.155 µM); MIC ([17]; Staphylococcus aureus X400, methicillin-resistant strain, agar dilution, read-out: MIC): 0.5 mg/L (≈ 0.644 µM); MIC ([21]; Haemophilus influenzae Holt, ampicillin-sensitive strain, read-out: MIC): 16 mg/L (≈ 20.6 µM); Number of Deaths/Number tested ([22]; 2.0 g/gal equivalent): 1/10
2 | CCC1OC(=O)CC(O)C(C)C(OC2OC(C)C(O)C(N(C)C)C2O)C(CCSc2ccccc2)CC(C)C(=O)C=CC(C)=CC1COC1OC(C)C(O)C(OC)C1OC (centres unmarked) [Compound 23, 20-DH-DO-20-(phenylthio)desmycosin] |  | 10 | 17 | 0.19 (≈ 0.219 µM) | 0.25 (≈ 0.289 µM) |  | 0.25 (≈ 0.289 µM) | 0.09 (≈ 0.104 µM) | 6.25 (≈ 7.22 µM) | 0.12 (≈ 0.139 µM) | 25 (≈ 28.9 µM) | 0.25 (≈ 0.289 µM) |  |  | > 25 |  | 8/10 | 10/10 | 0.25 (≈ 0.289 µM) | 12.5 (≈ 14.4 µM) | MIC ([1]; Streptococcus pneumoniae Park I, agar dilution, read-out: MIC): 2 mg/L (≈ 2.31 µM); MIC ([6]; Pasteurella multocida, 60A): 12.5 mg/L (≈ 14.4 µM); MIC [13, 29]: 16 mg/L (≈ 18.5 µM); MIC ([15]; Mycoplasma hyorhinis, broth-dilution microtiter, read-out: MIC): > 50 mg/L; MIC [16, 30]: 0.25 mg/L (≈ 0.289 µM); MIC ([17]; Staphylococcus aureus, X400): 0.25 mg/L (≈ 0.289 µM); MIC ([18]; Streptococcus Group D X66, agar dilution, read-out: MIC): 8 mg/L (≈ 9.24 µM); MIC ([20]; Mycoplasma synoviae, broth-dilution microtiter, read-out: MIC): 6.25 mg/L (≈ 7.22 µM)
3 | CCC1OC(=O)CC(O)C(C)C(OC2OC(C)C(O)C(N(C)C)C2O)C(CCOc2ccc([N+](=O)[O-])cc2)CC(C)C(=O)C=CC(C)=CC1COC1OC(C)C(O)C(OC)C1OC (centres unmarked) [Compound 34, 20-DH-20-O-(p-Nitrophenyl)desmycosin] | 1 (≈ 1.12 µM) | 1.1 | 5 | 0.39 (≈ 0.436 µM) | 0.5 (≈ 0.559 µM) | 25 (≈ 27.9 µM) | 1 (≈ 1.12 µM) | 0.39 (≈ 0.436 µM) |  | 0.12 (≈ 0.134 µM) | 25 (≈ 27.9 µM) | 0.5 (≈ 0.559 µM) | 50 (≈ 55.9 µM) | 4 (≈ 4.47 µM) |  | 0.78 (≈ 0.871 µM) | 7/10 | 9/10 | 0.5 (≈ 0.559 µM) | 12.5 (≈ 14 µM) | MIC ([5]; Haemophilus influenzae, R252): 16 mg/L (≈ 17.9 µM); MIC [10]; 80: 1.56 mg/L (≈ 1.74 µM); MIC [13, 29]: 8 mg/L (≈ 8.94 µM); MIC [16, 30]: 0.5 mg/L (≈ 0.559 µM); MIC ([17]; Staphylococcus aureus, X400): 1 mg/L (≈ 1.12 µM); MIC [19]: 12.5 mg/L (≈ 14 µM); MIC ([21]; Haemophilus influenzae): 16 mg/L (≈ 17.9 µM)
